# Source: patent publication US10294202B2, “Pyrrolidinones as herbicides” (FMC Corporation, priority 2013, dated 2019)
# Where “and” joins values, the source holds several entries; their conditions need not be identical. Equal values may be shown once.
# Assays:
# [1] = system: transplanted japonica rice (ORYSA); test: Test G paddy mixture test (Colby); assay type: in vivo, Oryza sativa; conditions: applied alone, 14 d; for ORYSA Obsd.: scale 0-100
# Method: (§1) Seeds of small-flower umbrella […], Cyperus difformis) and […], Heteranthera limosa) were sown on the soil surface in two separate quadrants of 11-cm (4-inch) tubs filled with steam pasteurized Tama soil. Simultaneously, plantings of […], Echinochloa crus-galli) and transplanted japonica rice (ORYSA, Oryza sativa) were established in separate “plug” flats. […] Herbicide application timing was targeted at the 2.0 to 2.5 leaf stage and the plants were treated with test chemicals formulated in a non-phytotoxic solvent. Treated plants and controls were maintained in a greenhouse for 14 d, after which time all species were compared to controls and visually evaluated. Plant response ratings are summarized in Tables G1 through G12, and are based on a scale of 0 to 100 where 0 is no effect and 100 is complete control. A dash (-) response means no test result. Colby's Equation was used to determine the herbicidal effects expected from the mixtures. Colby's Equation (Colby, S. R. “Calculating Synergistic and Antagonistic Responses of Herbicide Combinations,” Weeds, 15(1), pp 20-22 (1967)) calculates the expected additive effect of herbicidal mixtures and for two active ingredients is of the form: Pa+b=Pa+Pb-(PaPb/100) where • Pa+b is the percentage effect of the mixture expected from additive contribution of the individual components: • Pa is the observed percentage effect of the first active ingredient at the same use rate as in the mixture, and • Pb is the observed percentage effect of the second active ingredient at the same use rate as in the mixture. In the following Tables, rates are shown in grams of active ingredient per […]); “Obsd.” is the observed effect. “Exp.” is the expected effect calculated from Colby's Equation.
# [2] = system: small-flower umbrella sedge (CYPDI); test: Test G paddy mixture test (Colby); assay type: in vivo, Cyperus difformis; conditions: applied alone, 14 d; for CYPDI Obsd.: scale 0-100
# Method: as §1
# ducksalad (HETLI) = test: Test G paddy mixture test (Colby); assay type: in vivo, Heteranthera limosa; conditions: applied alone, 14 d; for HETLI Obsd.: scale 0-100
# Method: as §1
# barnyardgrass (ECHCG) = test: Test G paddy mixture test (Colby); assay type: in vivo, Echinochloa crus-galli; conditions: applied alone, 14 d; for ECHCG Obsd.: scale 0-100
# Method: as §1
# soybean (GLXMA) = test: Test H preemergence mixture test (Colby); assay type: in vivo, Glycine max; conditions: Mesotrione alone 16 g a.i./ha, 21 d after treatment, scale 0 to 100
# Excerpt: (§2) Colby's Equation was used to determine the herbicidal effects expected from the mixtures. Colby's Equation (Colby, S. R. “Calculating Synergistic and Antagonistic Responses of Herbicide Combinations,” Weeds, 15(1), pp 20-22 (1967)) calculates the expected additive effect of herbicidal mixtures and for two active ingredients is of the form: Pa+b=Pa+Pb−(PaPb/100)
# (§3) where • Pa+b is the percentage effect of the mixture expected from additive contribution of the individual components: • Pa is the observed percentage effect of the first active ingredient at the same use rate as in the mixture, and • Pb is the observed percentage effect of the second active ingredient at the same use rate as in the mixture. In the following Tables, rates are shown in grams of active ingredient per hectare (g a.i./ha); “Obsd.” is the observed effect. “Exp.” is the expected effect calculated from Colby's Equation.
# (§4) This test evaluated the effect of mixtures of compound 80 with several commercial herbicides on four plant species. Seeds of plant species selected from corn (ZEAMD, Zea mays), soybean (GLXMA, Glycine max), waterhemp (common waterhemp, AMATA, Amaranthus rudis), and giant foxtail (SETFA, Setaria faberii) were planted into a silt loam soil and treated preemergence with test chemicals formulated in a non-phytotoxic solvent mixture which included a surfactant and applied using a volume of 281 L/ha. Each treatment was replicated three times. Treated plants and controls were maintained in a greenhouse using supplemental lighting to maintain a photoperiod of about 16 h; daytime and nighttime temperatures were about 24-30° C. and 19-21° C., respectively. Nutrients were applied using a balanced fertilizer applied through the watering system. At 21 d after treatment, all species were compared to controls and visually evaluated. Plant response ratings were calculated as the means of the three replicates, are summarized in Tables H1 through H5, and are based on a scale of 0 to 100 where 0 is no effect and 100 is complete control. A dash (-) response means no test result. The Expected (Exp.) results were calculated using Colby's Equation as described for Test G above.
# waterhemp (AMATA) = test: Test H preemergence mixture test (Colby); assay type: in vivo, Amaranthus rudis; conditions: Mesotrione alone 16 g a.i./ha, 21 d after treatment, scale 0 to 100
# Excerpt: as §2, §3, §4
# corn (ZEAMD) = test: Test H preemergence mixture test (Colby); assay type: in vivo, Zea mays; conditions: Mesotrione alone 16 g a.i./ha, 21 d after treatment, scale 0 to 100
# Excerpt: as §2, §3, §4
# giant foxtail (SETFA) = test: Test H preemergence mixture test (Colby); assay type: in vivo, Setaria faberii; conditions: Mesotrione alone 16 g a.i./ha, 21 d after treatment, scale 0 to 100
# Excerpt: as §2, §3, §4
# rice = test: Test B flooded paddy test; assay type: in vivo, Oryza sativa; conditions: 1000 g ai/ha, Flood; scale of 0 to 100 where 0 is no effect and 100 is complete control
# How it was run: (§5)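 Treatment was made at the 2-leaf stage by dosing the standing floodwater, kept 3 cm above soil level for the whole test. Greenhouse exposure lasted 13 to 15 days. Response is a visual percent rating relative to controls, where a dash indicates no test result.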
# velvetleaf = test: Test A pre-/postemergence herbicide test; assay type: in vivo, Abutilon theophrasti; conditions: 1000 g ai/ha
# How it was run: (§6)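 Formulated compound (non-phytotoxic solvent, surfactant) sprayed pre- onto soil of seeded loam/sand pots or post- onto seedlings at 1–2 leaves; ~10 d greenhouse; 0–100 visual control rating versus untreated.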
# giant foxtail = test: Test A pre-/postemergence herbicide test; assay type: in vivo, Setaria faberii; conditions: 1000 g ai/ha
# How it was run: as §6
# sedge, umbrella = test: Test B flooded paddy test; assay type: in vivo, Cyperus difformis; conditions: 1000 g ai/ha, Flood; scale of 0 to 100 where 0 is no effect and 100 is complete control
# How it was run: as §5
# barnyardgrass [3] = test: Test A pre-/postemergence herbicide test; assay type: in vivo, Echinochloa crus-galli; conditions: 1000 g ai/ha
# How it was run: as §6
# rice, transplanted = test: Test F flood (paddy) test; assay type: in vivo, Oryza sativa cv. Japonica—M202; conditions: 21 d, scale 0-100
# Excerpt: (§7) Three plastic pots (ca. 16-cm diameter) per rate were partially filled with sterilized Tama silt loam soil comprising a 35:50:15 ratio of sand, silt and clay and 2.6% organic matter. Separate plantings for each of the three pots were as follows. Seeds from the U.S. of monochoria (Monochoria vaginalis), sedge, umbrella (small-flower umbrella sedge, Cyperus difformis), bulrush, […] bulrush, Scirpus juncoides), and […] (purple […] coccinea), were planted into one 16-cm pot for each rate. Seeds from the U.S. of flatsedge, rice (rice flatsedge, Cyperus iria), sprangletop, Brdd. (bearded sprangletop, Leptochloa fascicularis), one stand of 9 or 10 water seeded rice seedlings (Rice, W.S. Jap, Oryza sativa cv. 'Japonica-[…]' or Rice, W.S. Ind, 'Indica'), and two stands of 3 or 4 seedlings of rice, transplanted (transplanted rice, Oryza sativa cv. 'Japonica-[…]') were planted into one 16-cm pot for each rate. Seeds from the U.S. of barnyardgrass (Echinochloa crus-galli), […] (common […], Alisma plantago-aquatica), and watergrass, late (late watergrass, Echinochloa oryzicola) were planted into one 16-cm pot for each rate. Plantings were sequential so that crop and weed species were at the 2.0 to 2.5-leaf stage at time of treatment. Potted plants were grown in a greenhouse with day/night temperature settings of 30/27° C., and supplemental balanced lighting was provided to maintain a 16-h photoperiod. Test pots were maintained in the greenhouse until test completion. At time of treatment, test pots were flooded to 3 cm above the soil surface, treated by application of test compounds directly to the paddy water, and then maintained at that water depth for the duration of the test. Effects of treatments on rice and weeds were visually evaluated by comparison to untreated controls after 21 d. Plant response ratings, summarized in Table F, are based on a scale of 0 to 100 where 0 is no effect and 100 is complete control. A dash (-) response means no test result.
# barnyardgrass [4] = test: Test F flood (paddy) test; assay type: in vivo, Echinochloa crus-galli; conditions: 21 d, scale 0-100
# Excerpt: as §7
# monochoria = test: Test F flood (paddy) test; assay type: in vivo, Monochoria vaginalis; conditions: 21 d, scale 0-100
# Excerpt: as §7
# pigweed = test: Test A pre-/postemergence herbicide test; assay type: in vivo, Amaranthus retroflexus; conditions: 1000 g ai/ha
# How it was run: as §6
# Rice, W.S. Ind = test: Test F flood (paddy) test; assay type: in vivo, Oryza sativa Indica; conditions: 21 d, scale 0-100
# Excerpt: as §7
# sprangletop, Brdd. = test: Test F flood (paddy) test; assay type: in vivo, Leptochloa fascicularis; conditions: 21 d, scale 0-100
# Excerpt: as §7
# ducksalad = test: Test B flooded paddy test; assay type: in vivo, Heteranthera limosa; conditions: 1000 g ai/ha, Flood; scale of 0 to 100 where 0 is no effect and 100 is complete control
# How it was run: as §5
# watergrass, late = test: Test F flood (paddy) test; assay type: in vivo, Echinochloa oryzicola; conditions: 21 d, scale 0-100
# Excerpt: as §7
# corn = test: Test A pre-/postemergence herbicide test; assay type: in vivo, Zea mays; conditions: 1000 g ai/ha
# How it was run: as §6
# wheat = test: Test A pre-/postemergence herbicide test; assay type: in vivo, Triticum aestivum; conditions: 1000 g ai/ha
# How it was run: as §6
# crabgrass, large = test: Test A pre-/postemergence herbicide test; assay type: in vivo, Digitaria sanguinalis; conditions: 1000 g ai/ha
# How it was run: as §6
# morningglory = test: Test A pre-/postemergence herbicide test; assay type: in vivo, Ipomoea spp.; conditions: 1000 g ai/ha
# How it was run: as §6
# barnyardgrass [5] = test: Test B flooded paddy test; assay type: in vivo, Echinochloa crus-galli; conditions: 1000 g ai/ha, Flood; scale of 0 to 100 where 0 is no effect and 100 is complete control
# How it was run: as §5
# [6] = Postemergence, 0 to 100 scale (0 no effect, 100 complete control)
# [7] = Preemergence, visual rating on 0 to 100 scale (0 no effect, 100 complete control), approx. 10 days
structure (smiles),measurement,setting,value
CS(=O)(=O)c1ccc(C(=O)C2C(=O)CCCC2=O)c(Cl)c1COCC1CCCO1 (stereo not drawn) [Tefuryltrione],ORYSA Obsd.,[1]; 100 g a.i./ha,0
same,ORYSA Obsd. plant response rating (scale 0 to 100),"[1]; 100 g a.i./ha, flooded",0
same,CYPDI Obsd.,[2]; 100 g a.i./ha,90
same,CYPDI Obsd. plant response rating (scale 0 to 100),"[2]; 100 g a.i./ha, flooded",100
same,HETLI Obsd.,ducksalad (HETLI); 100 g a.i./ha,90
same,HETLI Obsd. plant response rating (scale 0 to 100),"ducksalad (HETLI); 100 g a.i./ha, flooded",100
same,ECHCG Obsd.,barnyardgrass (ECHCG); 100 g a.i./ha,0
same,ECHCG Obsd. plant response rating (scale 0 to 100),"barnyardgrass (ECHCG); 100 g a.i./ha, flooded",40
"CS(=O)(=O)c1ccc(C(=O)C2C(=O)CCCC2=O)c([N+](=O)[O-])c1 [Mesotrione, reference compound]","Plant response rating, Obsd., GLXMA",soybean (GLXMA),25
same,"Plant response rating, Obsd., AMATA",waterhemp (AMATA),96
same,"Plant response rating, Obsd., ZEAMD",corn (ZEAMD),12
same,"Plant response rating, Obsd., SETFA",giant foxtail (SETFA),0
O=C1NCC(c2ccc(F)c(F)c2)C1C(=O)Nc1ccccc1Cl (racemic) [Compound 99],"Plant response rating, Rice",rice,10
same,"Plant response rating, Velvetleaf",velvetleaf; [6],10
same,"Plant response rating, Velvetleaf",velvetleaf; [7],0
same,"Plant response rating, Foxtail, Giant",giant foxtail; [6],90
same,"Plant response rating, Foxtail, Giant",giant foxtail; [7],90
same,"Plant response rating, Sedge, Umbrella","sedge, umbrella",0
same,"Plant response rating, Barnyardgrass",barnyardgrass [3]; [6],90
same,"Plant response rating, Barnyardgrass",barnyardgrass [3]; [7],90
same,"Plant response rating, Rice, Transplanted","rice, transplanted; 125 g ai/ha",0
same,"Plant response rating, Rice, Transplanted","rice, transplanted; 250 g ai/ha",0
same,"Plant response rating, Rice, Transplanted","rice, transplanted; 500 g ai/ha",0
same,"Plant response rating, Barnyardgrass",barnyardgrass [4]; 125 g ai/ha,25
same,"Plant response rating, Barnyardgrass",barnyardgrass [4]; 250 g ai/ha,50
same,"Plant response rating, Barnyardgrass",barnyardgrass [4]; 500 g ai/ha,80
same,"Plant response rating, Monochoria",monochoria; 125 g ai/ha,50
same,"Plant response rating, Monochoria",monochoria; 250 g ai/ha,85
same,"Plant response rating, Monochoria",monochoria; 500 g ai/ha,95
same,"Plant response rating, Pigweed",pigweed; [6],0
same,"Plant response rating, Pigweed",pigweed; [7],0
same,"Plant response rating, Rice, W.S. Ind","Rice, W.S. Ind; 125 g ai/ha",0
same,"Plant response rating, Rice, W.S. Ind","Rice, W.S. Ind; 250 g ai/ha",0
same,"Plant response rating, Rice, W.S. Ind","Rice, W.S. Ind; 500 g ai/ha",0
same,"Plant response rating, Sprangletop, Brdd.","sprangletop, Brdd.; 125 g ai/ha",0
same,"Plant response rating, Sprangletop, Brdd.","sprangletop, Brdd.; 250 g ai/ha",75
same,"Plant response rating, Sprangletop, Brdd.","sprangletop, Brdd.; 500 g ai/ha",85
same,"Plant response rating, Ducksalad",ducksalad,95
same,"Plant response rating, Watergrass, Late","watergrass, late; 125 g ai/ha",30
same,"Plant response rating, Watergrass, Late","watergrass, late; 250 g ai/ha",40
same,"Plant response rating, Watergrass, Late","watergrass, late; 500 g ai/ha",50
same,"Plant response rating, Corn",corn; [6],20
same,"Plant response rating, Corn",corn; [7],20
same,"Plant response rating, Wheat",wheat; [6],20
same,"Plant response rating, Wheat",wheat; [7],20
same,"Plant response rating, Crabgrass, Large","crabgrass, large; [6]",90
same,"Plant response rating, Crabgrass, Large","crabgrass, large; [7]",90
same,"Plant response rating, Morningglory",morningglory; [6],10
same,"Plant response rating, Morningglory",morningglory; [7],0
same,"Plant response rating, Barnyardgrass",barnyardgrass [5],80
COCc1cccc(C(O)c2nc(OC)cc(OC)n2)c1NS(=O)(=O)C(F)F (stereo not drawn) [Pyrimisulfan],ORYSA Obsd.,[1]; 20 g a.i./ha,25 and 20
same,CYPDI Obsd.,[2]; 20 g a.i./ha,98 and 100
same,HETLI Obsd.,ducksalad (HETLI); 20 g a.i./ha,100
same,ECHCG Obsd.,barnyardgrass (ECHCG); 20 g a.i./ha,75 and 80
